In US8247424B2, “Fredericamycin derivatives” (Zentopharm GmbH, priority 2002, dated 2012):
≈ marks a conversion by molar mass, not a printed value.

Assay: Biological activity against 12 cancer cell lines, efficacy (IC70) averaged over all cell lines;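 further: panel also covers renal lines RXF 944L and RXF 486L, uterine UXF 1138L, and prostate lines PRXF PC3M and PRXF 22RV1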
Format: cell-based
Conditions: averaged over all 12 cancer cell lines, 5 test concentrations
Protocol: LCL (H460, lung), MACL (MCF7, breast), LXFL (52L, lung), LXFA (629L, lung), MEXF (462NL, melanoma), MEXF (514L, melanoma), MAXF (401NL, breast), RXF (944L, renal), RXF (486L, renal), UXF (1138L, uterus), PRXF (PC3M, prostate), PRXF (22RV1).

Q: With C/C=C/C=C/c1cc2c(F)c3c(c(O)c2c(=O)[nH]1)[C@@]1(CC3)C(=O)c2c(O)c3c(c(O)c2C1=O)C(=O)C(OC)=CC3=O [Example 23, (8S)-5-fluoro-4′,9,9′-trihydroxy-6′-methoxy-3-[(1E,3E)-penta-1,3-dienyl]-6,7-dihydrospiro[cyclopenta[g]isoquinoline-8,2′-cyclopenta[b]-naphthalene]-1,1′,3′,5′,8′(2H)-pentone] as the molecule, how does the IC70 read?
A: The IC70 was 0.011 µg/mL (≈ 0.0197 µM).

Q: For COC1=CC(=O)c2c(O)c3c(c(O)c2C1=O)C(=O)C1(CCc2cc4cc(C=NOCc5ccccc5)[nH]c(=O)c4c(O)c21)C3=O (centres unmarked) [Example 121, 4′,9,9′-Trihydroxy-6′-methoxy-1,1′,3′,5′,8′-pentaoxo-1,1′,2,3′,5′,6,7,8′-octahydrospiro[cyclopenta[g]isoquinoline-8,2′-cyclopenta[b]-naphthalene]-3-carbaldehyde O-benzyloxime], which IC70 is on record?
A: The IC70 was 0.202 µg/mL (≈ 0.333 µM).

Q: Which IC70 does the source give for COC1=CC(=O)c2c(O)c3c(c(O)c2C1=O)C(=O)C1(CCc2cc4cc(C=NOCc5cccc(Cl)c5)[nH]c(=O)c4c(O)c21)C3=O (centres unmarked) [Example 127, 4′,9,9′-Trihydroxy-6′-methoxy-1,1′,3′,5′,8′-pentaoxo-1,1′,2,3′,5′,6,7,8′-octahydrospiro[cyclopenta[g]isoquinoline-8,2′-cyclopenta[b]-naphthalene]-3-carbaldehyde O-(3-chlorobenzyl)oxime] here?
A: Its IC70 is 0.155 µg/mL (≈ 0.242 µM).

Q: For COC1=CC(=O)c2c(O)c3c(c(O)c2C1=O)C(=O)[C@]1(CCc2c1c(O)c1c(=O)[nH]c(C=NOCCN4CCOCC4)cc1c2Br)C3=O [Example 192, (8S)-5-bromo-4′,9,9′-trihydroxy-6′-methoxy-1,1′,3′,5′,8′-pentaoxo-1,1′,2,3′,5′,6,7,8′-octahydrospiro[cyclopenta[g]isoquinoline-8,2′-cyclopenta[b]-naphthalene]-3-carbaldehyde O-[2-morpholine-4-yl-ethyl)oxime], which IC70 is on record?
A: The IC70 was 0.075 µg/mL (≈ 0.106 µM).

Q: Which IC70 does the source give for CON=Cc1cc2c(Br)c3c(c(O)c2c(=O)[nH]1)[C@@]1(CC3)C(=O)c2c(O)c3c(c(O)c2C1=O)C(=O)C(OC)=CC3=O [Example 196, (8S)-5-bromo-4′,9,9′-trihydroxy-6′-methoxy-1,1′,3′,5′,8′-pentaoxo-1,1′,2,3′,5′,6,7,8′-octahydrospiro[cyclopenta[g]isoquinoline-8,2′-cyclopenta[b]-naphthalene]-3-carbaldehyde O-methyloxime] here?
A: Its IC70 is 0.095 µg/mL (≈ 0.156 µM).

Q: With COC1=CC(=O)c2c(O)c3c(c(O)c2C1=O)C(=O)[C@]1(CCc2c1c(O)c1c(=O)[nH]c(C=NOCc4ccccc4)cc1c2Br)C3=O [Example 197, (8S)-5-bromo-4′,9,9′-trihydroxy-6′-methoxy-1,1′,3′,5′,8′-pentaoxo-1,1′,2,3′,5′,6,7,8′-octahydrospiro[cyclopenta[g]isoquinoline-8,2′-cyclopenta[b]-naphthalene]-3-carbaldehyde-O-benzyloxime] as the molecule, how does the IC70 read?
A: Its IC70 is 0.034 µg/mL (≈ 0.0496 µM).

Q: For COC1=CC(=O)c2c(O)c3c(c(O)c2C1=O)C(=O)[C@]1(CCc2c1c(O)c1c(=O)[nH]c(C=NO)cc1c2Br)C3=O [Example 198, (8S)-5-bromo-4′,9,9′-trihydroxy-6′-methoxy-1,1′,3′,5′,8′-pentaoxo-1,1′,2,3′,5′,6,7,8′-octahydrospiro[cyclopenta[g]isoquinoline-8,2′-cyclopenta[b]-naphthalene]-3-carbaldehyde oxime], which IC70 is on record?
A: The IC70 was 0.256 µg/mL (≈ 0.43 µM).

Q: With COC1=CC(=O)c2c(O)c3c(c(O)c2C1=O)C(=O)[C@]1(CCc2c1c(O)c1c(=O)[nH]c(C=NOCc4cccc(Cl)c4)cc1c2Br)C3=O [Example 203, (8S)-5-bromo-4′,9,9′-trihydroxy-6′-methoxy-1,1′,3′,5′,8′-pentaoxo-1,1′,2,3′,5′,6,7,8′-octahydrospiro[cyclopenta[g]isoquinoline-8,2′-cyclopenta[b]-naphthalene]-3-carbaldehyde O-(3-chlorobenzyl)oxime] as the molecule, how does the IC70 read?
A: The IC70 was 0.159 µg/mL (≈ 0.221 µM).

Q: Which IC70 does the source give for COC1=CC(=O)c2c(O)c3c(c(O)c2C1=O)C(=O)[C@]1(CCc2c1c(O)c1c(=O)[nH]c(C=NOCCCN4CCN(c5cccc(Cl)c5)CC4)cc1c2Br)C3=O [Example 212, (8S)-5-bromo-4′,9,9′-trihydroxy-6′-methoxy-1,1′,3′,5′,8′-pentaoxo-1,1′,2,3′,5′,6,7,8′-octahydrospiro[cyclopenta[g]isoquinoline-8,2′-cyclopenta[b]-naphthalene]-3-carbaldehyde O-[3-(4-(3-chlorophenyl)-piperazine-1-yl)propyl]oxime] here?
A: Its IC70 is 0.21 µg/mL (≈ 0.252 µM).

Q: For COC1=CC(=O)c2c(O)c3c(c(O)c2C1=O)C(=O)[C@]1(CCc2cc4cc(C=NOC(C)C)[nH]c(=O)c4c(O)c21)C3=O [Example 214, (8S)-4′,9,9′-trihydroxy-6′-methoxy-1,1′,3′,5′,8′-pentaoxo-1,1′,2,3′,5′,6,7,8′-octahydrospiro[cyclopenta[g]isoquinoline-8,2′-cyclopenta[b]-naphthalene]-3-carbaldehyde O-isopropyloxime], which IC70 is on record?
A: Its IC70 is 0.022 µg/mL (≈ 0.0394 µM).

Q: For CCCCCCON=Cc1cc2cc3c(c(O)c2c(=O)[nH]1)[C@@]1(CC3)C(=O)c2c(O)c3c(c(O)c2C1=O)C(=O)C(OC)=CC3=O [Example 215, (8S)-4′,9,9′-trihydroxy-6′-methoxy-1,1′,3′,5′,8′-pentaoxo-1,1′,2,3′,5′,6,7,8′-octahydrospiro[cyclopenta[g]isoquinoline-8,2′-cyclopenta[b]-naphthalene]-3-carbaldehyde O-n-hexyloxime], which IC70 is on record?
A: The IC70 was 0.072 µg/mL (≈ 0.12 µM).

Q: Which IC70 does the source give for COC1=CC(=O)c2c(O)c3c(c(O)c2C1=O)C(=O)[C@]1(CCc2cc4cc(C=NOCc5ccc(Cl)cc5)[nH]c(=O)c4c(O)c21)C3=O [Example 217, (8S)-4′,9,9′-trihydroxy-6′-methoxy-1,1′,3′,5′,8′-pentaoxo-1,1′,2,3′,5′,6,7,8′-octahydrospiro[cyclopenta[g]isoquinoline-8,2′-cyclopenta[b]-naphthalene]-3-carbaldehyde O-(4-chlorobenzyl)oxime] here?
A: Its IC70 is 0.129 µg/mL (≈ 0.201 µM).

Q: For COC1=CC(=O)c2c(O)c3c(c(O)c2C1=O)C(=O)[C@]1(CCc2cc4cc(C=NOCc5cccc(F)c5)[nH]c(=O)c4c(O)c21)C3=O [Example 218, (8S)-4′,9,9′-trihydroxy-6′-methoxy-1,1′,3′,5′,8′-pentaoxo-1,1′,2,3′,5′,6,7,8′-octahydrospiro[cyclopenta[g]isoquinoline-8,2′-cyclopenta[b]-naphthalene]-3-carbaldehyde O-(3-fluorobenzyl)oxime], which IC70 is on record?
A: The IC70 was 0.076 µg/mL (≈ 0.122 µM).

Q: For COC1=CC(=O)c2c(O)c3c(c(O)c2C1=O)C(=O)[C@]1(CCc2c1c(O)c1c(=O)[nH]c(C=NOC(C)C)cc1c2Br)C3=O [Example 224, (8S)-5-bromo-4′,9,9′-trihydroxy-6′-methoxy-1,1′,3′,5′,8′-pentaoxo-1,1′,2,3′,5′,6,7,8′-octahydrospiro[cyclopenta[g]isoquinoline-8,2′-cyclopenta[b]-naphthalene]-3-carbaldehyde O-isopropyloxime], which IC70 is on record?
A: Its IC70 is 0.047 µg/mL (≈ 0.0737 µM).

Q: With CCCCCCON=Cc1cc2c(Br)c3c(c(O)c2c(=O)[nH]1)[C@@]1(CC3)C(=O)c2c(O)c3c(c(O)c2C1=O)C(=O)C(OC)=CC3=O [Example 225, (8S)-5-bromo-4′,9,9′-trihydroxy-6′-methoxy-1,1′,3′,5′,8′-pentaoxo-1,1′,2,3′,5′,6,7,8′-octahydrospiro[cyclopenta[g]isoquinoline-8,2′-cyclopenta[b]-naphthalene]-3-carbaldehyde O-n-hexyloxime] as the molecule, how does the IC70 read?
A: The IC70 was 0.111 µg/mL (≈ 0.163 µM).

Q: With CCCCCCON=Cc1cc2c(I)c3c(c(O)c2c(=O)[nH]1)[C@@]1(CC3)C(=O)c2c(O)c3c(c(O)c2C1=O)C(=O)C(OC)=CC3=O [Example 230, (8S)-5-iodo-4′,9,9′-trihydroxy-6′-methoxy-1,1′,3′,5′,8′-pentaoxo-1,1′,2,3′,5′,6,7,8′-octahydrospiro[cyclopenta[g]isoquinoline-8,2′-cyclopenta[b]-naphthalene]-3-carbaldehyde O-n-hexyloxime] as the molecule, how does the IC70 read?
A: Its IC70 is 0.091 µg/mL (≈ 0.125 µM).

Q: Which IC70 does the source give for COC1=CC(=O)c2c(O)c3c(c(O)c2C1=O)C(=O)[C@]1(CCc2c1c(O)c1c(=O)[nH]c(C=NOCc4ccc(Cl)cc4)cc1c2I)C3=O [Example 232, (8S)-5-iodo-4′,9,9′-trihydroxy-6′-methoxy-1,1′,3′,5′,8′-pentaoxo-1,1′,2,3′,5′,6,7,8′-octahydrospiro[cyclopenta[g]isoquinoline-8,2′-cyclopenta[b]-naphthalene]-3-carbaldehyde O-(4-chlorobenzyl)oxime] here?
A: Its IC70 is 0.317 µg/mL (≈ 0.413 µM).

Q: With COC1=CC(=O)c2c(O)c3c(c(O)c2C1=O)C(=O)[C@]1(CCc2c1c(O)c1c(=O)[nH]c(C=NOCc4cccc(F)c4)cc1c2I)C3=O [Example 233, (8S)-5-iodo-4′,9,9′-trihydroxy-6′-methoxy-1,1′,3′,5′,8′-pentaoxo-1,1′,2,3′,5′,6,7,8′-octahydrospiro[cyclopenta[g]isoquinoline-8,2′-cyclopenta[b]-naphthalene]-3-carbaldehyde O-(3-fluorobenzyl)oxime] as the molecule, how does the IC70 read?
A: Its IC70 is 0.1 µg/mL (≈ 0.133 µM).

Q: For COC1=CC(=O)c2c(O)c3c(c(O)c2C1=O)C(=O)[C@]1(CCc2c1c(O)c1c(=O)[nH]c(C=NOCc4ccccc4)cc1c2I)C3=O [Example 234, (8S)-5-iodo-4′,9,9′-trihydroxy-6′-methoxy-1,1′,3′,5′,8′-pentaoxo-1,1′,2,3′,5′,6,7,8′-octahydrospiro[cyclopenta[g]isoquinoline-8,2′-cyclopenta[b]-naphthalene]-3-carbaldehyde O-benzyloxime], which IC70 is on record?
A: The IC70 was 0.052 µg/mL (≈ 0.071 µM).

Q: For COC1=CC(=O)c2c(O)c3c(c(O)c2C1=O)C(=O)[C@]1(CCc2c1c(O)c1c(=O)[nH]c(C=NOCCN4CCOCC4)cc1c2I)C3=O [Example 235, (8S)-5-iodo-4′,9,9′-trihydroxy-6′-methoxy-1,1′,3′,5′,8′-pentaoxo-1,1′,2,3′,5′,6,7,8′-octahydrospiro[cyclopenta[g]isoquinoline-8,2′-cyclopenta[b]-naphthalene]-3-carbaldehyde O-[2-morpholine-4-yl-ethyl)oxime], which IC70 is on record?
A: Its IC70 is 0.081 µg/mL (≈ 0.107 µM).

Q: For CON=Cc1cc2c(I)c3c(c(O)c2c(=O)[nH]1)[C@@]1(CC3)C(=O)c2c(O)c3c(c(O)c2C1=O)C(=O)C(OC)=CC3=O [Example 236, (8S)-5-iodo-4′,9,9′-trihydroxy-6′-methoxy-1,1′,3′,5′,8′-pentaoxo-1,1′,2,3′,5′,6,7,8′-octahydrospiro[cyclopenta[g]isoquinoline-8,2′-cyclopenta[b]-naphthalene]-3-carbaldehyde O-methyloxime], which IC70 is on record?
A: Its IC70 is 0.121 µg/mL (≈ 0.184 µM).

Q: With COc1cccc2c1C(=O)c1c(O)c3c(c(O)c1C2=O)C[C@@](O)(C(=O)CO)C[C@@H]3O[C@H]1C[C@H](N)[C@H](O)[C@H](C)O1 [adriamycin] as the molecule, how does the IC70 read?
A: The IC70 was 0.021 µg/mL (≈ 0.0386 µM).

Q: With C/C=C/C=C/c1cc2cc3c(c(O)c2c(=O)[nH]1)C1(CC3)C(=O)c2c(O)c3c(c(O)c2C1=O)C(=O)C(OC)=CC3=O (centres unmarked) [fredericamycin, fredericamycin A] as the molecule, how does the IC70 read?
A: Its IC70 is 0.279 µg/mL (≈ 0.517 µM).
